Legend:
[1] = test system: erythrocytic stages of P.falciparum; experiment: Incorporation of radiotracers (3H-hypoxanthine, 14C-isoleucine) by P.falciparum growing in blood cultures; format: cell-based, Plasmodium falciparum
Procedure: Antibiotics—Samples of Mocimycin (kirromycin), Aurodox (N-methylated kirromycin), and Efrotomycin (a glycoside of kirromycin) were used. Aurodox was dissolved in RPMI-Albumax medium (Grande et al 1977), kirromycin was dissolved in RPMI made alkaline by addition of 1M NaOH, and efrotomycin was dissolved in ethanol before dilution in culture medium. Enacyloxin IIA was dissolved in 1% NaHCO3 prior to dilution in RPMI-Albumax medium. The antibiotic GE2270A was dissolved in 100% DMSO before dilution in culture medium. Fusidic acid (Sigma) was dissolved directly in culture medium, and thiostrepton (Sigma) in 100% DMSO before dilution in culture medium. A hemisuccinate form of thiostrepton was prepared as a potassium salt, according to Bodanszky et al 1965. Incorporation of radiotracers by P.falciparum growing in blood cultures in the presence and absence of drugs was carried out as described (Strath et al 1993).
Kirromycin: Kirromycin-resistant forms of bacterial EF-Tu are modified at one of seven amino acids along the opposing interfaces of domains I and III (Mesters et al 1994 and Abdulkarim et al 1994) and Pf EF-Tupl has a substitution at one of these sites (A375S-E.coli numbers) that could potentially confer resistance to kirromycin. To test this possibility, kirromycin (Mocimycin), its methylated derivative Aurodox or its disaccharide derivative Efrotomycin were incubated with erythrocytic stages of P.falciparum grown in cultures over a 36 hr period. The incorporation of both ^3H-hypoxanthine and ^14C-isoleucine was inhibited in a dose-dependent fashion, maximum inhibition being achieved at 100 μM kirromycin (FIG. 5). […] Once maximal depression of incorporation had been reached at any particular dose of drug, residual incorporation continued at a uniform rate thereafter. Vital staining with rhodamine 123, a fluorescent dye that concentrates within the mitochondrion (Divo et al. 1985) confirmed the parasiticidal effect, loss of specific mt staining being evident within 2-3 hours (data not shown). […] Blood cultures of P.falciparum were about 10 times more sensitive to the antibiotic than a gram-positive bacterium (Corynebacterium spp) used in parallel bioassays.

[2] = test system: GTPase domain of Pf 23S rRNApl; experiment: Thiostrepton filter binding assay, transcripts of the GTPase domain of Pf 23S rRNApl (wild type and mutated); design: species or system Plasmodium falciparum
Procedure: (§1) A) Short 23S transcripts of P.falciparum (Pf) wild type rRNApl (open circle A1067) and mutated forms (open square A1067U and filled triangle A1067G), as well as Pf 28S rRNA transcripts (filled square), are compared with an optimized E.coli control transcript (filled circle). For convenience, nucleotide numbers correspond to E.coli.
(§2) Drug binding—Thiostrepton binding to short rRNA transcripts generated in vitro was assayed according to Ryan et al 1991, as modified by Clough et al 1997. […] Before […], samples were incubated on ice for 15 mins in 50 mM imidazole acetate (pH 7.6), 10 mM NH4Cl, 10 mM MgCl2, 1 mM […] and 100 μM GDP, in a final volume of 20 μl.
Having established thiostrepton's activity, we asked “does the antibiotic bind preferentially to the nuclear, mitochondrial or plastid forms of Pf 28/23 S rRNA?”. Evidence that the highest affinity interaction of thiostrepton is with 23S rRNApl was obtained from an in vitro binding assay (Ryan et al 1991). Short transcripts of wild type (wt) RNA corresponding to the GTPase domain of Pf 23S rRNApl (nts 987-1078) were transcribed in vitro from a PCR product that included a T7 promoter sequence in one of the primers. Mutated malarial rRNA sequences (E.coli numbers A1067U and A1067G) were obtained by PCR methodology and transcribed in the same way. Both wild type and modified transcript sequences were verified prior to thiostrepton binding assays. A positive control transcript was used based on the 23S rRNA sequence of E.coli with a mutation (U1061A) that increases stability and binding. […] An intermediate level of binding (˜35% of wt) was obtained with the mutation Pfpl (E.coli number A1067G). Thiostrepton binding to a transcript corresponding to the GTPase domain (nt 1334-1427) of the cytosolic Pf 28S rRNA was ˜10% of that for Pf 23S rRNApl.

[3] = test system: GTPase domain of the cytosolic Pf 28S rRNA; experiment: Thiostrepton filter binding assay, cytosolic Pf 28S rRNA transcript; design: species or system Plasmodium falciparum; conditions: GTPase domain nt 1334-1427
Procedure: as §1, §2
Having established thiostrepton's activity, we asked “does the antibiotic bind preferentially to the nuclear, mitochondrial or plastid forms of Pf 28/23 S rRNA?”. Evidence that the highest affinity interaction of thiostrepton is with 23S rRNApl was obtained from an in vitro binding assay (Ryan et al 1991). Short transcripts of wild type (wt) RNA corresponding to the GTPase domain of Pf 23S rRNApl (nts 987-1078) were transcribed in vitro from a PCR product that included a T7 promoter sequence in one of the primers. Mutated malarial rRNA sequences (E.coli numbers A1067U and A1067G) were obtained by PCR methodology and transcribed in the same way. […]

[4] = test system: GTPase domain of the E. coli 23S rRNA; experiment: Thiostrepton binding assay, E. coli 23S rRNA transcript; conditions: contains the A at position 1067
Procedure: The binding was specific. It depended to a large extent on the presence of an A residue at the position corresponding to E. coli position 1067. […] A transcript corresponding to the GTPase domain of the cytosolic malaria 28S rRNA also bound thiostrepton poorly.
as §2
Having established thiostrepton's activity, we asked “does the antibiotic bind preferentially to the nuclear, mitochondrial or plastid forms of Pf 28/23 S rRNA?”. Evidence that the highest affinity interaction of thiostrepton is with 23S rRNApl was obtained from an in vitro binding assay (Ryan et al 1991). Short transcripts of wild type (wt) RNA corresponding to the GTPase domain of Pf 23S rRNApl (nts 987-1078) were transcribed in vitro from a PCR product that included a T7 promoter sequence in one of the primers. Mutated malarial rRNA sequences (E.coli numbers A1067U and A1067G) were obtained by PCR methodology and transcribed in the same way. Both wild type and modified transcript sequences were verified prior to thiostrepton binding assays. […]

[5] = test system: GTPase domain of the 23S rRNApl of Toxoplasma gondii; experiment: Thiostrepton filter binding assay, T. gondii 23S rRNApl transcripts
Procedure: B) T. gondii wild type rRNApl transcript (filled triangle) and mutated transcript (open triangle) compared with control transcripts from P.falciparum rRNApl (open circle) and E.coli (filled circle).
as §2
In the same way, we tested a transcript corresponding to the GTPase domain of the 23S rRNApl of Toxoplasma gondii (Tg), a related apicomplexan that is an important opportunistic pathogen in patients with AIDS. […] This was found also to be the case with a transcript derived from a PCR product covering the GTPase domain of Tgpl 23S rRNA (nt 926-1024) (FIG. 8B). Corrective mutation of the Tgpl transcript (E. coli number […]) conferred a significant increase (×5) in thiostrepton binding (FIG. 8B).

Structure (SMILES): C=C(NC(=O)C(=C)NC(=O)c1csc(C2=N[C@@H]3c4csc(n4)[C@H]4NC(=O)c5csc(n5)[C@H]([C@](C)(O)[C@@H](C)O)NC(=O)[C@H]5CSC(=N5)/C(=C/C)NC(=O)[C@H]([C@@H](C)O)NC(=O)c5csc(n5)[C@]3(CC2)NC(=O)[C@H](C)NC(=O)C(=C)NC(=O)[C@H](C)NC(=O)[C@H]([C@@H](C)CC)N[C@@H]2C=Cc3c([C@H](C)O)cc(nc3[C@H]2O)C(=O)O[C@@H]4C)n1)C(N)=O [thiostrepton]
- onset of inhibition of protein synthesis [1]: 5 h
- IC50 ([1]; Plasmodium falciparum, 3 h, read-out: 50% inhibition of uptake of 3H-hypoxanthine and 14C-isoleucine): 3 to 5 µM
- thiostrepton binding, mutation A1067G ([2]; Pfpl transcript, E.coli number A1067G): ~35 % of wt
- thiostrepton binding, mutation A1067U ([2]; Pfpl transcript, E.coli number A1067U): ~14 % of wt
- thiostrepton binding to wild type transcript ([2]; short transcript of the GTPase domain, malaria plastid): bound thiostrepton strongly
- thiostrepton binding to Pf 28S rRNA transcript relative to Pf 23S rRNApl [3]: ~10%
- thiostrepton binding to E. coli transcript [4]: bind thiostrepton strongly
- increase in thiostrepton binding by corrective mutation U1077A ([5]; Tgpl transcript, E. coli number U1077A versus wild type): 5 ×
- thiostrepton binding to wild type Tgpl transcript ([5]; wild type has substitution E.coli number A1077U, nt 926-1024): inhibits binding

Source: patent publication US20020058266A1, “EF-Tu protein encoded on the plastid DNA of the malaria parasite and protein synthesis inhibitors effective as anti-malarial compounds” (priority 1997, published 2002)
